Results taken from PubChem BioAssay (NCI).
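Cells were grown in 96-well plates and exposed to each compound for 48 hours at five concentrations; endpoints were interpolated linearly between bracketing concentrations, or set to the highest concentration if not reached. TGI: concentration producing complete growth inhibition.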

Assays:
Assay in all cases: growth of human tumour cells (NCI), 48 h
[1] = test system: HOP-62 NSCLC
[2] = test system: K-562 leukemia
[3] = test system: HS 578T breast
[4] = test system: LOX IMVI melanoma
[5] = test system: MOLT-4 leukemia
[6] = test system: A498 renal
[7] = test system: SW-620 colon
[8] = test system: MDA-N
[9] = test system: OVCAR-8 ovarian
[10] = test system: HL-60(TB) leukemia
[11] = test system: SK-MEL-28 melanoma
[12] = test system: SF-268 CNS
[13] = test system: SR leukemia
[14] = test system: OVCAR-3 ovarian
[15] = test system: SF-295 CNS
[16] = test system: NCI-H522 lung
[17] = test system: DU-145 prostate
[18] = test system: SK-MEL-5 melanoma
[19] = test system: M14 melanoma
[20] = test system: CAKI-1 renal
[21] = test system: MALME-3M melanoma
[22] = test system: A549 NSCLC
[23] = test system: SK-MEL-2 melanoma
[24] = test system: RPMI-8226 leukemia
[25] = test system: BT-549 breast
[26] = test system: OVCAR-5 ovarian
[27] = test system: SF-539 CNS
[28] = test system: T-47D breast
[29] = test system: SN12C renal
[30] = test system: KM12 colon
[31] = test system: HCT-116 colon
[32] = test system: SNB-19 CNS
[33] = test system: RXF 393 renal
[34] = test system: IGROV1 ovarian
[35] = test system: CCRF-CEM leukemia
[36] = test system: EKVX NSCLC
[37] = test system: SNB-75 CNS
[38] = test system: NCI/ADR-RES ovarian
[39] = test system: ACHN renal
[40] = test system: HCT-15 colon
[41] = test system: PC-3 prostate
[42] = test system: NCI-H226 lung
[43] = test system: HOP-92 NSCLC
[44] = test system: MDA-MB-435
[45] = test system: UACC-62 melanoma
[46] = test system: UO-31 renal
[47] = test system: HT29 colon
[48] = test system: NCI-H23 lung
[49] = test system: SK-OV-3 ovarian
[50] = test system: MCF7 breast
[51] = test system: COLO 205 colon
[52] = test system: HCC-2998 colon
[53] = test system: UACC-257 melanoma
[54] = test system: 786-0 renal
[55] = test system: U251 CNS
[56] = test system: TK-10 renal
[57] = test system: OVCAR-4 ovarian
[58] = test system: NCI-H460 lung

Question: With `COc1cc(S(=O)(=O)Nc2ccc(-c3csc(N4C(=O)C(C)SC4c4cccc(Oc5ccccc5)c4)n3)cc2)ccc1Cl` (stereo not given) as the molecule, how does the TGI [1] read?
Answer: > 100 µM

Question: And the TGI [2]?
Answer: > 100 µM

Question: And the TGI [3]?
Answer: > 100 µM

Question: And the TGI [4]?
Answer: > 100 µM

Question: What about the TGI [5] of the same molecule?
Answer: > 100 µM

Question: And the TGI [6]?
Answer: 79.3 µM

Question: And the TGI [7]?
Answer: > 100 µM

Question: And the TGI [8]?
Answer: > 100 µM

Question: What about the TGI [9] of the same molecule?
Answer: > 100 µM

Question: And the TGI [10]?
Answer: 67.2 µM

Question: And the TGI [11]?
Answer: > 100 µM

Question: What about the TGI [12] of the same molecule?
Answer: > 100 µM

Question: What about the TGI [13] of the same molecule?
Answer: > 100 µM

Question: What about the TGI [14] of the same molecule?
Answer: > 100 µM

Question: And the TGI [15]?
Answer: > 100 µM

Question: What about the TGI [16] of the same molecule?
Answer: > 100 µM

Question: What about the TGI [17] of the same molecule?
Answer: > 100 µM

Question: What about the TGI [18] of the same molecule?
Answer: > 100 µM

Question: And the TGI [19]?
Answer: > 100 µM

Question: And the TGI [20]?
Answer: > 100 µM

Question: What about the TGI [21] of the same molecule?
Answer: > 100 µM

Question: What about the TGI [22] of the same molecule?
Answer: > 100 µM

Question: And the TGI [23]?
Answer: > 100 µM

Question: What about the TGI [24] of the same molecule?
Answer: > 100 µM

Question: What about the TGI [25] of the same molecule?
Answer: > 100 µM

Question: And the TGI [26]?
Answer: > 100 µM

Question: What about the TGI [27] of the same molecule?
Answer: > 100 µM

Question: And the TGI [28]?
Answer: > 100 µM

Question: What about the TGI [29] of the same molecule?
Answer: > 100 µM

Question: What about the TGI [30] of the same molecule?
Answer: > 100 µM

Question: And the TGI [31]?
Answer: > 100 µM

Question: What about the TGI [32] of the same molecule?
Answer: > 100 µM

Question: What about the TGI [33] of the same molecule?
Answer: 88.2 µM

Question: What about the TGI [34] of the same molecule?
Answer: > 100 µM

Question: And the TGI [35]?
Answer: > 100 µM

Question: And the TGI [36]?
Answer: > 100 µM

Question: And the TGI [37]?
Answer: > 100 µM

Question: And the TGI [38]?
Answer: > 100 µM

Question: And the TGI [39]?
Answer: > 100 µM

Question: What about the TGI [40] of the same molecule?
Answer: > 100 µM

Question: What about the TGI [41] of the same molecule?
Answer: > 100 µM

Question: And the TGI [42]?
Answer: > 100 µM

Question: What about the TGI [43] of the same molecule?
Answer: > 100 µM

Question: And the TGI [44]?
Answer: > 100 µM

Question: What about the TGI [45] of the same molecule?
Answer: > 100 µM

Question: What about the TGI [46] of the same molecule?
Answer: > 100 µM

Question: What about the TGI [47] of the same molecule?
Answer: > 100 µM

Question: And the TGI [48]?
Answer: > 100 µM

Question: What about the TGI [49] of the same molecule?
Answer: > 100 µM

Question: What about the TGI [50] of the same molecule?
Answer: 72.2 µM

Question: And the TGI [51]?
Answer: > 100 µM

Question: With `CC1=C(C(=O)OCCc2ccc([N+](=O)[O-])cc2)C(c2cccc([N+](=O)[O-])c2)C(C(=O)OC(C)C)=C(C)N1` (stereo not given) as the molecule, how does the TGI [1] read?
Answer: > 100 µM

Question: And the TGI [2]?
Answer: > 100 µM

Question: And the TGI [3]?
Answer: > 100 µM

Question: What about the TGI [4] of the same molecule?
Answer: > 100 µM

Question: What about the TGI [5] of the same molecule?
Answer: > 100 µM

Question: And the TGI [52]?
Answer: > 100 µM

Question: And the TGI [7]?
Answer: > 100 µM

Question: And the TGI [8]?
Answer: > 100 µM

Question: And the TGI [9]?
Answer: > 100 µM

Question: And the TGI [11]?
Answer: > 100 µM

Question: And the TGI [12]?
Answer: > 100 µM

Question: And the TGI [13]?
Answer: > 100 µM

Question: What about the TGI [14] of the same molecule?
Answer: > 100 µM

Question: And the TGI [15]?
Answer: > 100 µM

Question: What about the TGI [16] of the same molecule?
Answer: 7.71 µM

Question: And the TGI [17]?
Answer: > 100 µM

Question: And the TGI [53]?
Answer: > 100 µM

Question: What about the TGI [18] of the same molecule?
Answer: 7.25 µM

Question: And the TGI [19]?
Answer: > 100 µM

Question: And the TGI [54]?
Answer: > 100 µM

Question: And the TGI [55]?
Answer: > 100 µM

Question: And the TGI [20]?
Answer: > 100 µM

Question: What about the TGI [21] of the same molecule?
Answer: > 100 µM

Question: And the TGI [22]?
Answer: > 100 µM

Question: What about the TGI [23] of the same molecule?
Answer: > 100 µM

Question: And the TGI [25]?
Answer: > 100 µM

Question: And the TGI [26]?
Answer: > 100 µM

Question: And the TGI [27]?
Answer: > 100 µM

Question: What about the TGI [28] of the same molecule?
Answer: > 100 µM

Question: And the TGI [56]?
Answer: > 100 µM

Question: And the TGI [29]?
Answer: > 100 µM

Question: And the TGI [30]?
Answer: > 100 µM

Question: What about the TGI [31] of the same molecule?
Answer: > 100 µM

Question: What about the TGI [32] of the same molecule?
Answer: > 100 µM

Question: What about the TGI [33] of the same molecule?
Answer: > 100 µM

Question: And the TGI [57]?
Answer: > 100 µM

Question: And the TGI [34]?
Answer: > 100 µM

Question: What about the TGI [35] of the same molecule?
Answer: > 100 µM

Question: And the TGI [36]?
Answer: > 100 µM

Question: And the TGI [58]?
Answer: > 100 µM

Question: And the TGI [37]?
Answer: 76.7 µM

Question: And the TGI [38]?
Answer: > 100 µM

Question: What about the TGI [39] of the same molecule?
Answer: > 100 µM

Question: What about the TGI [40] of the same molecule?
Answer: > 100 µM

Question: And the TGI [41]?
Answer: > 100 µM

Question: What about the TGI [42] of the same molecule?
Answer: > 100 µM

Question: What about the TGI [44] of the same molecule?
Answer: > 100 µM

Question: What about the TGI [45] of the same molecule?
Answer: > 100 µM

Question: What about the TGI [46] of the same molecule?
Answer: > 100 µM

Question: What about the TGI [47] of the same molecule?
Answer: > 100 µM

Question: What about the TGI [48] of the same molecule?
Answer: > 100 µM

Question: What about the TGI [49] of the same molecule?
Answer: > 100 µM

Question: And the TGI [50]?
Answer: > 100 µM

Question: And the TGI [51]?
Answer: > 100 µM
